According to patent US8378117B2 (priority 2005, dated 2013):
Read-outs that look alike come from different tables or passages of the source.

Legend:
CB1 receptor = molecular target: T1, CB1 receptor (Homo sapiens, UniProt P21554); assay: Binding assay for CB1 agonists or inverse agonists (SK-N-MC membranes, [3H]-CP-55,940); conditions: for inhibition at 1 µM: read-out: CB1 receptor binding percent inhibition, test concentration 1 μM (footnote 1); for inhibition at 0.2 µM: read-out: CB1 receptor binding percent inhibition, test concentration 0.2 μM (footnote 2); for IC50: Cannabinoid CB1 Receptor Binding IC50, calculated by linear regression from percent inhibition at various test concentrations; for inhibition at 0.25 µM: read-out: CB1 receptor binding percent inhibition, test concentration 0.25 μM (footnote 8)
T1 construct: expressed in transfected cells
Protocol: (§1) The human CB1 and CB2 receptors were stably expressed in SK-N-MC cells transfected with pcDNA3 CB-1 (human) or pcDNA3 CB-2 (human). The cells were grown in T-180 cell culture flasks under standard cell culture conditions at 37° C. in a 5% CO2 atmosphere. The cells were harvested by trysinization and homogenized in a homogenization buffer (10 mM Tris, 0.2 mM MgCl2, 5 mM KCl, with protease inhibitors aprotinin, leupeptin, pepstatin A and bacitracin) and centrifuged (2000 g). The supernatant was then centrifuged in 2M sucrose (31,300 g) to produce a semi-purified membrane pellet. The pellet was resuspended in homogenization and stored at −80° C.
(§2) On the day of the assay, the pellet was thawed on ice and diluted in assay buffer (50 mM Tris-HCl, 5 mM MgCl2, 2.5 mM EDTA, 0.5 mg/mL fatty acid free bovine serum aldumin, pH 7.5). The diluted membrane pellet was added with buffer, either a test compound or vehicle standard and the radioligand [H]^3+-CP-55,940 (0.2 mM) to the wells of a 96-well polypropylene plate. Non-specific binding was measured in wells containing WIN 55,212 (10 uM). The plate was covered and incubated for 90 minutes at 30° C. The contents were then aspirated onto a Packard Unifilter GF/C filter bottom plate prewet with 0.5% polyethyleneimine. The wells of the polypropylene plate were rinsed and aspirated seven times with a 0.9% saline-0.5% Tween 20 solution. The Unifilter plate was dried, a scintillation cocktail was added to each well and the counts representing binding were quantitated in a TopCount scintillation counter.
(§3) For compounds tested, an IC50 binding value was obtained from percent inhibition studies in which various test concentrations were used. The binding value was calculated by linear regression.

CB2 receptor = molecular target: T2, CB2 receptor (Homo sapiens, UniProt P34972); assay: Binding assay for CB2 agonists or inverse agonists (SK-N-MC membranes, [3H]-CP-55,940)
T2 construct: expressed in transfected cells
Protocol: as §1
as §2, with “The diluted membrane pellet was added with buffer, either a test compound or vehicle standard and the radioligand [H]^3+-CP-55,940 (0.2 mM) to the wells of a 96-well polypropylene plate. Non-specific binding was measured in wells containing WIN 55,212 (10 uM).” left out
as §3

[1] = test concentration 0.2 μM (footnote 2), read-out: CB2 receptor binding percent inhibition
[2] = read-out: CB2 receptor binding percent inhibition, test concentration 0.2 μM (footnote 2)

T1 sequence (P21554 whole entry): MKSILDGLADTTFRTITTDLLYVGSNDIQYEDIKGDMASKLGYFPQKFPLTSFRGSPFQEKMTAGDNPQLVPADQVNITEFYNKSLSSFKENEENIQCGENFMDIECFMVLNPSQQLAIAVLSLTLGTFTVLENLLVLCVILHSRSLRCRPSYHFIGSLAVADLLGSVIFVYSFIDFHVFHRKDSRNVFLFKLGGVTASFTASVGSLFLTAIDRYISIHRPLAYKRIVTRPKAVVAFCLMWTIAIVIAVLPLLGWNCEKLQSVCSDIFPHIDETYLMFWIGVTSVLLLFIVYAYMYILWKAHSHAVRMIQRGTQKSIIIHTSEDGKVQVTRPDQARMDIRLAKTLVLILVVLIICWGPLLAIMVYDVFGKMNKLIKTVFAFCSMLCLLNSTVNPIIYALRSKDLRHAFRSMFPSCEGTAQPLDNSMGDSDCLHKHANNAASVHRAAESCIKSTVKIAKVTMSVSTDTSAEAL
T2 sequence (P34972 whole entry): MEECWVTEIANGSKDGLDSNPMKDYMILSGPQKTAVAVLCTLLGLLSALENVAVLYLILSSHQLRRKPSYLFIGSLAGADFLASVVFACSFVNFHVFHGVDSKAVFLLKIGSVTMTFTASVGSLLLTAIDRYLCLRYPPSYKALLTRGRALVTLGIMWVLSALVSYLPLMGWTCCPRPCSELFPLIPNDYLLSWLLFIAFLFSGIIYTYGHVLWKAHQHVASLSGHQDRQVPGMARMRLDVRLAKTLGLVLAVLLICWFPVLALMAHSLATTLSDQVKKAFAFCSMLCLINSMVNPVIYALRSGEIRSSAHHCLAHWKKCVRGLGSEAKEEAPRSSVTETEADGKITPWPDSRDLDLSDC

SMILES | inhibition at 1 µM (CB1 receptor) | CB2 receptor binding percent inhibition (CB2 receptor; test concentration not stated) | inhibition at 0.2 µM (CB1 receptor) | inhibition at 0.2 µM (CB2 receptor; [1]) | further results
CC12CCC(C1)C(C)(C)[C@H]2NC(=O)c1nn(C2CCCCC2)c2c1CCCCC2Cc1ccccc1Cl (stereo partly drawn) [Cpd 11, 8-(2-chloro-benzyl)-1-cyclohexyl-1,4,5,6,7,8-hexahydro-cycloheptapyrazole-3-carboxylic acid [(2S)-1,3,3-trimethyl-bicyclo[2.2.1]hept-2-yl]-amide] | 17% | 21% | – | – | –
O=C(N[C@@H]1c2ccccc2C[C@@H]1O)c1nn(-c2ccc(F)cc2F)c2c1CCCCC2Cc1ccc(F)cc1 (stereo partly drawn) [Cpd 119, 1-(2,4-difluoro-phenyl)-8-(4-fluoro-benzyl)-1,4,5,6,7,8-hexahydro-cycloheptapyrazole-3-carboxylic acid [(1R,2S)-2-hydroxy-indan-1-yl]-amide] | 39% | 38% | – | – | –
O=C(N[C@@H](CO)Cc1ccccc1)c1nn(-c2nccc(C(F)(F)F)n2)c2c1CCCCC2Cc1cccc(Cl)c1 (stereo partly drawn) [Cpd 186, 8-(3-chloro-benzyl)-1-(4-trifluoromethyl-pyrimidin-2-yl)-1,4,5,6,7,8-hexahydro-cycloheptapyrazole-3-carboxylic acid [(1R)-1-benzyl-2-hydroxy-ethyl]-amide] | – | – | 12% | 58% | –
O=C(NC1CC1)c1nn(C2CCCCC2)c2c1CCCCC2Cc1ccc(F)cc1 (stereo not shown) [Cpd 56, 1-cyclohexyl-8-(4-fluoro-benzyl)-1,4,5,6,7,8-hexahydro-cycloheptapyrazole-3-carboxylic acid cyclopropylamide] | 0% | 42% | – | – | –
O=C(c1nn(-c2cc(Cl)ccc2Cl)c2c1CCCC/C2=C\c1ccc(Cl)cc1)N1CCOCC1 [Cpd 201, (8E)-[8-(4-chloro-benzylidene)-1-(2,5-dichloro-phenyl)-1,4,5,6,7,8-hexahydro-cycloheptapyrazol-3-yl]-morpholin-4-yl-methanone] | – | – | 11% | 0% | –
C[C@@H](NC(=O)c1nn(-c2ccnc3cc(Cl)ccc23)c2c1CCCCC2Cc1cccc(Cl)c1)c1ccccc1 (stereo partly drawn) [Cpd 177, 8-(3-chloro-benzyl)-1-(7-chloro-quinolin-4-yl)-1,4,5,6,7,8-hexahydro-cycloheptapyrazole-3-carboxylic acid [(1R)-1-phenyl-ethyl]-amide] | – | – | 4% | 27% | –
C[C@@H](NC(=O)c1nn(-c2ccncc2)c2c1CCCC/C2=C\c1ccc(Cl)cc1)c1ccccc1 [Cpd 170, (8E)-8-(4-chloro-benzylidene)-1-pyridin-4-yl-1,4,5,6,7,8-hexahydro-cycloheptapyrazole-3-carboxylic acid [(1R)-1-phenyl-ethyl]-amide] | – | – | 29% | 27% | –
Cn1nc(C(=O)n2ccnc2)c2c1/C(=C/c1cccc(F)c1)CCCC2 [Cpd 243, (8E)-[8-(3-fluoro-benzylidene)-1-methyl-1,4,5,6,7,8-hexahydro-cycloheptapyrazol-3-yl]-imidazol-1-yl-methanone] | – | – | 0% | 0% | –
O=C(NC1CCCCC1)c1nn(C2CCCCC2)c2c1CCCCC2Cc1cccc(F)c1 (stereo not shown) [Cpd 51, 1-cyclohexyl-8-(3-fluoro-benzyl)-1,4,5,6,7,8-hexahydro-cycloheptapyrazole-3-carboxylic acid cyclohexylamide] | 36% | 30% | – | – | –
C[C@H](NC(=O)c1n[nH]c2c1CCCC/C2=C\c1ccc(Cl)cc1)C1CCCCC1 [Cpd 143, (8E)-8-(4-chloro-benzylidene)-1,4,5,6,7,8-hexahydro-cycloheptapyrazole-3-carboxylic acid [(1S)-1-cyclohexyl-ethyl]-amide] | – | – | 99% | – | IC50 (CB1 receptor): 2 nM; inhibition at 0.002 µM (CB1 receptor; read-out: CB1 receptor binding percent inhibition, test concentration 0.002 μM (footnote 11)): 55%; CB1 receptor binding percent inhibition (CB1 receptor; test concentration not stated): 77%; CB2 receptor binding percent inhibition (CB2 receptor; test concentration 0.2 μM (footnote 2)): ^(2)100%
O=C(N[C@H](CO)Cc1ccccc1)c1n[nH]c2c1CCCCC2Cc1cccc(Cl)c1 (stereo partly drawn) [Cpd 166, 8-(3-chloro-benzyl)-1,4,5,6,7,8-hexahydro-cycloheptapyrazole-3-carboxylic acid [(1S)-1-benzyl-2-hydroxy-ethyl]-amide] | – | – | 24% | – | inhibition at 0.2 µM (CB2 receptor; [2]): 75%
C[C@@H](NS(=O)(=O)C=Cc1n[nH]c2c1CCCCC2Cc1cccc(F)c1)c1ccccc1 (stereo partly drawn) [Cpd 235, 2-[8-(3-fluoro-benzyl)-1,4,5,6,7,8-hexahydro-cycloheptapyrazol-3-yl]-ethenesulfonic acid [(1R)-1-phenyl-ethyl]-amide] | – | – | 0% | 41% | –
COC(=O)[C@@H](Cc1ccc(O)cc1)NC(=O)c1nn(-c2ccc(F)cc2F)c2c1CCCCC2Cc1ccc(F)cc1 (stereo partly drawn) [Cpd 98, (2R)-2-{[1-(2,4-difluoro-phenyl)-8-(4-fluoro-benzyl)-1,4,5,6,7,8-hexahydro-cycloheptapyrazole-3-carbonyl]-amino}-3-(4-hydroxy-phenyl)-propionic acid methyl ester] | 51% | 43% | – | – | –
NS(=O)(=O)c1ccc(NC(=O)c2nn(-c3ccc(Cl)cc3Cl)c3c2CCCC/C3=C\c2ccc(Cl)cc2)cc1 [Cpd 154, (8E)-8-(4-chloro-benzylidene)-1-(2,4-dichloro-phenyl)-1,4,5,6,7,8-hexahydro-cycloheptapyrazole-3-carboxylic acid (4-sulfamoyl-phenyl)-amide] | – | – | 33% | 7% | –
C[C@H](NC(=O)c1nn(-c2ccccc2Cl)c2c1CCCC/C2=C\c1ccc(Cl)cc1)c1ccccc1 [Cpd 191, (8E)-8-(4-chloro-benzylidene)-1-(2-chloro-phenyl)-1,4,5,6,7,8-hexahydro-cycloheptapyrazole-3-carboxylic acid [(1S)-1-phenyl-ethyl]-amide] | – | – | 47% | – | inhibition at 0.2 µM (CB2 receptor; [2]): 7%
O=C(NN1CCCCC1)c1nn(Cc2ccccc2)c2c1CCCCC2c1ccccc1 (stereo not shown) [Cpd 68, 1-benzyl-8-phenyl-1,4,5,6,7,8-hexahydro-cycloheptapyrazole-3-carboxylic acid piperidin-1-ylamide] | – | – | – | – | inhibition at 0.25 µM (CB1 receptor): 0%; inhibition at 0.25 µM (CB2 receptor; read-out: CB2 receptor binding percent inhibition, test concentration 0.25 μM (footnote 8)): 27%
COC(=O)[C@H](Cc1ccc(F)cc1)NC(=O)c1nn(-c2ccc(Cl)cc2Cl)c2c1CCCCC2Cc1ccc(F)cc1 (stereo partly drawn) [Cpd 72, (2S)-2-{[1-(2,4-dichloro-phenyl)-8-(4-fluoro-benzyl)-1,4,5,6,7,8-hexahydro-cycloheptapyrazole-3-carbonyl]-amino}-3-(4-fluoro-phenyl)-propionic acid methyl ester] | – | 10% | – | – | CB1 receptor binding average percent inhibition (CB1 receptor; value shown is an average percent inhibition (footnote 5), concentration not given): ^(5)38%
O=C(NCC(F)(F)F)c1nn(Cc2ccccc2)c2c1CCCCC2c1ccccc1 (stereo not shown) [Cpd 86, 1-benzyl-8-phenyl-1,4,5,6,7,8-hexahydro-cycloheptapyrazole-3-carboxylic acid (2,2,2-trifluoro-ethyl)-amide] | – | – | – | – | inhibition at 0.25 µM (CB1 receptor): 0%; inhibition at 0.25 µM (CB2 receptor; test concentration 0.25 μM (footnote 8), read-out: CB2 receptor binding percent inhibition): 22%
C[C@H](NC(=O)c1nn(-c2ccc(Cl)cc2Cl)c2c1CCCC/C2=C\c1ccc(Cl)cc1)c1ccccc1 [Cpd 139, (8E)-8-(4-chloro-benzylidene)-1-(2,4-dichloro-phenyl)-1,4,5,6,7,8-hexahydro-cycloheptapyrazole-3-carboxylic acid [(1S)-1-phenyl-ethyl]-amide] | – | – | 72% | – | IC50 (CB1 receptor): 50 nM; inhibition at 0.2 µM (CB2 receptor; [2]): 30%
CC12CCC(C1)C(C)(C)[C@H]2NC(=O)c1nn(-c2ccc(Cl)cc2Cl)c2c1CCCCC2Cc1ccc(Cl)cc1 (stereo partly drawn) [Cpd 14, 8-(4-chloro-benzyl)-1-(2,4-dichloro-phenyl)-1,4,5,6,7,8-hexahydro-cycloheptapyrazole-3-carboxylic acid [(2S)-1,3,3-trimethyl-bicyclo[2.2.1]hept-2-yl]-amide] | 29% | 7% | – | – | –
O=C(NC12CC3CC(CC(C3)C1)C2)c1nn(C2CCCCC2)c2c1CCCCC2Cc1ccc(Cl)cc1 (stereo not shown) [Cpd 20, 8-(4-chloro-benzyl)-1-cyclohexyl-1,4,5,6,7,8-hexahydro-cycloheptapyrazole-3-carboxylic acid adamantan-1-ylamide] | 4% | 28% | – | – | –
